In patent US20060252807A1, “Novel ortho-terphenyl inhibitors of p38 kinase and methods of treating inflammatory disorders” (Kalypsys, Inc., priority 2005, published 2006):
pIC50: −log10 of the molar value.

Molecular target: T1, active p38 alpha enzyme (Upstate Biotechnology) (Homo sapiens, UniProt Q16539)
T1 construct: purchased Upstate Biotechnology
Assay: p38α biochemical assay (ATP turnover, luminescent detection, Cambrex PKlight)
Details: p38α kinase; Table 1 Biological Activity
How it was run: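 Compounds in DMSO are added to active p38 alpha with MapkapK2 whole protein and ATP at 1.4 uM final. Reactions then run for 2 hours at 30C. A luminescent reagent is added last to quantify total ATP consumed.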

T1 sequence (Q16539 whole entry): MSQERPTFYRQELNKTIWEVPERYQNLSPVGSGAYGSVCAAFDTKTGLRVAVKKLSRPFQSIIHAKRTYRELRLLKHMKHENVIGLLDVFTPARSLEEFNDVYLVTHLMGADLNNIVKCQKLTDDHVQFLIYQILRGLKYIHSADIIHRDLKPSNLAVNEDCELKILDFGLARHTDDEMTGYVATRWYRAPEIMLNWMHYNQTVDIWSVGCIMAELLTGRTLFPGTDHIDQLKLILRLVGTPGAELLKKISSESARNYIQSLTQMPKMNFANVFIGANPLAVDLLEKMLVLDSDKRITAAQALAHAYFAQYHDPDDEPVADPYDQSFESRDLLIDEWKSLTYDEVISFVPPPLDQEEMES

pIC50 | SMILES
< 6.00 | Cc1ccc(O)c(C(=O)N2CCC(c3[nH]nc(-c4ccc(F)cc4)c3-c3nc(C(=O)NC(C)C)cs3)CC2)c1 [Example 859]
< 6.00 | CC(C)NC(=O)c1csc(-c2c(-c3ccc(F)cc3)n[nH]c2C2CCN(C(=O)c3cc(O)ccc3O)CC2)n1 [Example 860]
< 6.00 | CC(C)NC(=O)c1csc(-c2c(-c3ccc(F)cc3)n[nH]c2C2CCN(C(=O)c3cccc(O)c3O)CC2)n1 [Example 861]
< 6.00 | CC(C)NC(=O)c1csc(-c2c(-c3ccc(F)cc3)n[nH]c2C2CCN(C(=O)c3ccc(O)cc3O)CC2)n1 [Example 862]
< 6.00 | Cc1ccc(C(=O)N2CCC(c3[nH]nc(-c4ccc(F)cc4)c3-c3nc(C(=O)NC(C)C)cs3)CC2)cc1F [Example 863]
< 6.00 | Cc1ccc(F)cc1C(=O)N1CCC(c2[nH]nc(-c3ccc(F)cc3)c2-c2nc(C(=O)NC(C)C)cs2)CC1 [Example 864]
< 6.00 | CC(C)NC(=O)c1csc(-c2c(-c3ccc(F)cc3)n[nH]c2C2CCN(C(=O)c3ccccc3Cl)CC2)n1 [Example 865]
< 6.00 | CC(C)NC(=O)c1csc(-c2c(-c3ccc(F)cc3)n[nH]c2C2CCN(C(=O)c3ccc(Cl)nc3)CC2)n1 [Example 866]
≥ 6.00 | CC(C)NC(=O)c1csc(-c2c(-c3ccc(F)cc3)n[nH]c2C2CCN(C(=O)c3cccnc3Cl)CC2)n1 [Example 867]
≥ 6.00 | CC(C)NC(=O)c1csc(-c2c(-c3ccc(F)cc3)n[nH]c2C2CCN(C(=O)c3ccnc(Cl)c3)CC2)n1 [Example 868]
≥ 6.00 | CC(C)NC(=O)c1csc(-c2c(-c3ccc(F)cc3)n[nH]c2C2CCN(C(=O)c3cc(Cl)ccn3)CC2)n1 [Example 869]
≥ 6.00 | CC(C)NC(=O)c1csc(-c2c(-c3ccc(F)cc3)n[nH]c2C2CCN(C(=O)c3ccncc3Cl)CC2)n1 [Example 870]
< 6.00 | CC(C)NC(=O)c1csc(-c2c(-c3ccc(F)cc3)n[nH]c2C2CCN(C(=O)c3c(F)cccc3F)CC2)n1 [Example 871]
< 6.00 | CC(C)NC(=O)c1csc(-c2c(-c3ccc(F)cc3)n[nH]c2C2CCN(C(=O)c3cccc(F)c3F)CC2)n1 [Example 872]
< 6.00 | CC(C)NC(=O)c1csc(-c2c(-c3ccc(F)cc3)n[nH]c2C2CCN(C(=O)c3ccc(F)cc3F)CC2)n1 [Example 873]
< 6.00 | CC(C)NC(=O)c1csc(-c2c(-c3ccc(F)cc3)n[nH]c2C2CCN(C(=O)c3cc(F)cc(F)c3)CC2)n1 [Example 874]
< 6.00 | CC(C)NC(=O)c1csc(-c2c(-c3ccc(F)cc3)n[nH]c2C2CCN(C(=O)c3ccc(F)c(F)c3)CC2)n1 [Example 875]
< 6.00 | CC(CC(=O)N1CCC(c2[nH]nc(-c3ccc(F)cc3)c2-c2nc(C(=O)NC(C)C)cs2)CC1)CC(C)(C)C (stereo not shown) [Example 876]
< 6.00 | CC(C)NC(=O)c1csc(-c2c(-c3ccc(F)cc3)n[nH]c2C2CCN(C(=O)c3cc4ccccc4o3)CC2)n1 [Example 877]
< 6.00 | CC(C)NC(=O)c1csc(-c2c(-c3ccc(F)cc3)n[nH]c2C2CCN(C(=O)C3CCc4ccccc43)CC2)n1 (stereo not shown) [Example 878]
< 6.00 | CC(C)NC(=O)c1csc(-c2c(-c3ccc(F)cc3)n[nH]c2C2CCN(C(=O)C(Cl)(Cl)Cl)CC2)n1 [Example 879]
< 6.00 | CC(C)NC(=O)c1csc(-c2c(-c3ccc(F)cc3)n[nH]c2C2CCN(C(=O)/C=C/c3ccccc3O)CC2)n1 [Example 880]

pIC50 | SMILES
< 6.00 | CC(=O)c1ccc(C(=O)N2CCC(c3[nH]nc(-c4ccc(F)cc4)c3-c3nc(C(=O)NC(C)C)cs3)CC2)cc1 [Example 881]
< 6.00 | CC(C)NC(=O)c1csc(-c2c(-c3ccc(F)cc3)n[nH]c2C2CCN(C(=O)/C=C/c3cccc(O)c3)CC2)n1 [Example 882]
< 6.00 | CC(=O)c1cccc(C(=O)N2CCC(c3[nH]nc(-c4ccc(F)cc4)c3-c3nc(C(=O)NC(C)C)cs3)CC2)c1 [Example 883]
< 6.00 | CC(=O)c1ccccc1C(=O)N1CCC(c2[nH]nc(-c3ccc(F)cc3)c2-c2nc(C(=O)NC(C)C)cs2)CC1 [Example 884]
< 6.00 | CC(C)NC(=O)c1csc(-c2c(-c3ccc(F)cc3)n[nH]c2C2CCN(C(=O)c3ccc(C(C)C)cc3)CC2)n1 [Example 885]
< 6.00 | Cc1ccccc1CCC(=O)N1CCC(c2[nH]nc(-c3ccc(F)cc3)c2-c2nc(C(=O)NC(C)C)cs2)CC1 [Example 886]
< 6.00 | Cc1cccc(CCC(=O)N2CCC(c3[nH]nc(-c4ccc(F)cc4)c3-c3nc(C(=O)NC(C)C)cs3)CC2)c1 [Example 887]
< 6.00 | CCC(C(=O)N1CCC(c2[nH]nc(-c3ccc(F)cc3)c2-c2nc(C(=O)NC(C)C)cs2)CC1)c1ccccc1 (stereo not shown) [Example 888]
< 6.00 | CCCc1ccc(C(=O)N2CCC(c3[nH]nc(-c4ccc(F)cc4)c3-c3nc(C(=O)NC(C)C)cs3)CC2)cc1 [Example 890]
< 6.00 | CC(C)NC(=O)c1csc(-c2c(-c3ccc(F)cc3)n[nH]c2C2CCN(C(=O)c3ccc4c(c3)OCO4)CC2)n1 [Example 891]
< 6.00 | CC(C)NC(=O)c1csc(-c2c(-c3ccc(F)cc3)n[nH]c2C2CCCN(C(=O)/C=C/c3ccccc3F)CC2)n1 (stereo not shown) [Example 892]
< 6.00 | CCOc1ccccc1C(=O)N1CCC(c2[nH]nc(-c3ccc(F)cc3)c2-c2nc(C(=O)NC(C)C)cs2)CC1 [Example 893]
< 6.00 | Cc1ccccc1OCC(=O)N1CCC(c2[nH]nc(-c3ccc(F)cc3)c2-c2nc(C(=O)NC(C)C)cs2)CC1 [Example 894]
< 6.00 | CC(C)NC(=O)c1csc(-c2c(-c3ccc(F)cc3)n[nH]c2C2CCN(C(=O)CCc3ccccc3O)CC2)n1 [Example 895]
< 6.00 | COc1ccccc1CC(=O)N1CCC(c2[nH]nc(-c3ccc(F)cc3)c2-c2nc(C(=O)NC(C)C)cs2)CC1 [Example 896]
< 6.00 | CC(C)NC(=O)c1csc(-c2c(-c3ccc(F)cc3)n[nH]c2C2CCN(C(=O)C(C)c3ccc(O)cc3)CC2)n1 (stereo not shown) [Example 897]
< 6.00 | CC(C)NC(=O)c1csc(-c2c(-c3ccc(F)cc3)n[nH]c2C2CCN(C(=O)c3ccccc3[N+](=O)[O-])CC2)n1 [Example 898]
< 6.00 | CC(C)NC(=O)c1csc(-c2c(-c3ccc(F)cc3)n[nH]c2C2CCN(C(=O)c3cccc([N+](=O)[O-])c3)CC2)n1 [Example 899]
< 6.00 | COc1cccc(O)c1C(=O)N1CCC(c2[nH]nc(-c3ccc(F)cc3)c2-c2nc(C(=O)NC(C)C)cs2)CC1 [Example 900]
< 6.00 | COc1ccc(O)c(C(=O)N2CCC(c3[nH]nc(-c4ccc(F)cc4)c3-c3nc(C(=O)NC(C)C)cs3)CC2)c1 [Example 901]
< 6.00 | COc1ccc(C(=O)N2CCC(c3[nH]nc(-c4ccc(F)cc4)c3-c3nc(C(=O)NC(C)C)cs3)CC2)c(O)c1 [Example 902]
< 6.00 | COc1ccc(C(=O)N2CCC(c3[nH]nc(-c4ccc(F)cc4)c3-c3nc(C(=O)NC(C)C)cs3)CC2)cc1O [Example 903]

pIC50 | SMILES
≥ 6.00 | CC(C)NC(=O)c1csc(-c2c(-c3ccc(F)cc3)n[nH]c2C2CCN(C(=O)c3cc(O)c(O)c(O)c3)CC2)n1 [Example 904]
< 6.00 | CC(C)NC(=O)c1csc(-c2c(-c3ccc(F)cc3)n[nH]c2C2CCN(C(=O)Cc3ccc(O)c(F)c3)CC2)n1 [Example 905]
< 6.00 | Cc1cc(C(=O)N2CCC(c3[nH]nc(-c4ccc(F)cc4)c3-c3nc(C(=O)NC(C)C)cs3)CC2)cc(Cl)n1 [Example 906]
< 6.00 | CC(C)NC(=O)c1csc(-c2c(-c3ccc(F)cc3)n[nH]c2C2CCN(C(=O)Cc3c(F)cccc3F)CC2)n1 [Example 907]
≥ 6.00 | CC(C)NC(=O)c1csc(-c2c(-c3ccc(F)cc3)n[nH]c2C2CCN(C(=O)c3cccc4ccccc34)CC2)n1 [Example 908]
< 6.00 | CC(C)NC(=O)c1csc(-c2c(-c3ccc(F)cc3)n[nH]c2C2CCN(C(=O)c3ccc(Cl)cc3O)CC2)n1 [Example 909]
< 6.00 | CC(C)NC(=O)c1csc(-c2c(-c3ccc(F)cc3)n[nH]c2C2CCN(C(=O)c3cc(Cl)ccc3O)CC2)n1 [Example 910]
< 6.00 | CC(C)NC(=O)c1csc(-c2c(-c3ccc(F)cc3)n[nH]c2C2CCN(C(=O)c3ccc4ncccc4c3)CC2)n1 [Example 911]
< 6.00 | CC(C)NC(=O)c1csc(-c2c(-c3ccc(F)cc3)n[nH]c2C2CCN(C(=O)c3cnc(O)c(Cl)c3)CC2)n1 [Example 912]
< 6.00 | CC(C)NC(=O)c1csc(-c2c(-c3ccc(F)cc3)n[nH]c2C2CCN(C(=O)c3ccc(F)cc3Cl)CC2)n1 [Example 913]
< 6.00 | CC(C)NC(=O)c1csc(-c2c(-c3ccc(F)cc3)n[nH]c2C2CCN(C(=O)c3c(F)cccc3Cl)CC2)n1 [Example 914]
< 6.00 | CC(C)NC(=O)c1csc(-c2c(-c3ccc(F)cc3)n[nH]c2C2CCN(C(=O)CNC(=O)OC(C)(C)C)CC2)n1 [Example 915]
≥ 6.00 | Cc1c(C(=O)N2CCC(c3[nH]nc(-c4ccc(F)cc4)c3-c3nc(C(=O)NC(C)C)cs3)CC2)oc2ccccc12 [Example 916]
< 6.00 | CC(C)NC(=O)c1csc(-c2c(-c3ccc(F)cc3)n[nH]c2C2CCN(C(=O)CC3Cc4ccccc4C3)CC2)n1 [Example 917]
< 6.00 | CC(C)NC(=O)c1csc(-c2c(-c3ccc(F)cc3)n[nH]c2C2CCN(C(=O)C3CCc4ccccc4C3)CC2)n1 (stereo not shown) [Example 918]
< 6.00 | COc1ccccc1/C=C/C(=O)N1CCC(c2[nH]nc(-c3ccc(F)cc3)c2-c2nc(C(=O)NC(C)C)cs2)CC1 [Example 919]
< 6.00 | CC(C)NC(=O)c1csc(-c2c(-c3ccc(F)cc3)n[nH]c2C2CCN(C(=O)c3csc4ccccc34)CC2)n1 [Example 920]
< 6.00 | CC(C)NC(=O)c1csc(-c2c(-c3ccc(F)cc3)n[nH]c2C2CCN(C(=O)c3cc4ccccc4s3)CC2)n1 [Example 921]
< 6.00 | CCCCc1ccc(C(=O)N2CCC(c3[nH]nc(-c4ccc(F)cc4)c3-c3nc(C(=O)NC(C)C)cs3)CC2)cc1 [Example 922]
≥ 6.00 | CC(C)NC(=O)c1csc(-c2c(-c3ccc(F)cc3)n[nH]c2C2CCN(C(=O)c3ccc(C(C)(C)C)cc3)CC2)n1 [Example 923]
